Experimental data taken from PMC2737065 (Journal of the American Chemical Society, 2009).

Biological target: P450 19A1 (aromatase) (Homo sapiens, UniProt P11511)
Assay: competitive ABPP: blockade of probe […] labeling, in-gel fluorescence
Type: biochemical

Chain of P450 19A1 (aromatase) (P16435 2-677): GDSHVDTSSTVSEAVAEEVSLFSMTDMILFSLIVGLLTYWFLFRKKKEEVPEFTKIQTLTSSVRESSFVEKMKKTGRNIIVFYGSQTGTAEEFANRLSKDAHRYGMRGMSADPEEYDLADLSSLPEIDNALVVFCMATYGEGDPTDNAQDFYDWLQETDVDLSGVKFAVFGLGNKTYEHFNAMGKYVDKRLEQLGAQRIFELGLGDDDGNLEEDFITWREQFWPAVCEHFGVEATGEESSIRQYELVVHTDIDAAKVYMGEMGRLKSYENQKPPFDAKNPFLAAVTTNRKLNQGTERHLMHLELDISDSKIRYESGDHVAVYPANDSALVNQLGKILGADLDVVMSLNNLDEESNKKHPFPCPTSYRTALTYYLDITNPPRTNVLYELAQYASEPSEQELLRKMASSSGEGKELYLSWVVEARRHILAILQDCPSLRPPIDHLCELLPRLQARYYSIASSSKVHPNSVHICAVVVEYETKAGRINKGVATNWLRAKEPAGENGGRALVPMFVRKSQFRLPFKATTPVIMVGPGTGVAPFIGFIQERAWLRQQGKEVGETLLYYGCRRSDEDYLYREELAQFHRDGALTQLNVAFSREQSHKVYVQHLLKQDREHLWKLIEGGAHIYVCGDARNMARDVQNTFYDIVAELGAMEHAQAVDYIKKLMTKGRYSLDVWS
Chain of P450 19A1 (aromatase) (P11511 whole entry): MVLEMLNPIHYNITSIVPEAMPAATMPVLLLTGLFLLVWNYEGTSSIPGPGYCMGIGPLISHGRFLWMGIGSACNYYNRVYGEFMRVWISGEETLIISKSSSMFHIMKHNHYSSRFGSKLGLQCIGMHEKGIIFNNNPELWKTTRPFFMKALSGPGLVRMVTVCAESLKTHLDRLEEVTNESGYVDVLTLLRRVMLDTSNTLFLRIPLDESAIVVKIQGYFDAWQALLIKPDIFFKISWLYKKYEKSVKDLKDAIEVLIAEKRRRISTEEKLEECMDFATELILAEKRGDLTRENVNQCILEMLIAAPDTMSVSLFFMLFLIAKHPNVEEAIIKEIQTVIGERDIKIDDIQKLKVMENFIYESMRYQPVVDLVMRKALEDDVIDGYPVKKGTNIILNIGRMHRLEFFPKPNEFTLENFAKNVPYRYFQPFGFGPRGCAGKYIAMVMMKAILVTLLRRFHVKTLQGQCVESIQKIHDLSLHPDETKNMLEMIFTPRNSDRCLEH

For C[C@]12CCC(=O)C(O)=C1CC[C@@H]1[C@@H]2CC[C@]2(C)C(=O)CC[C@@H]12 [formestane], the IC50 was 430 nM.
